What was measured:
[1] = DRUGMATRIX: Sigma2 radioligand binding (ligand: [3H] Ifenprodil); assay type: cell membranes, Rattus norvegicus, Wistar, Brain, Membrane; conditions: Not Active = under 50% inhibition at 10 µM
D(1A) dopamine receptor = D(1A) dopamine receptor (Homo sapiens, UniProt P21728); experiment: DRUGMATRIX: Dopamine D1 radioligand binding (ligand: [3H] SCH-23390); assay type: cell membranes, CHO, Membrane; conditions: cho; Not Active = under 50% inhibition at 10 µM
Calcitonin receptor = molecular target: T1, Calcitonin receptor (Homo sapiens, UniProt P30988); assay type: cell membranes, Membrane; conditions: t47d; note: in other assays of this panel Not Active means under 50% inhibition at 10 µM
T1 sequence (P30988 whole entry): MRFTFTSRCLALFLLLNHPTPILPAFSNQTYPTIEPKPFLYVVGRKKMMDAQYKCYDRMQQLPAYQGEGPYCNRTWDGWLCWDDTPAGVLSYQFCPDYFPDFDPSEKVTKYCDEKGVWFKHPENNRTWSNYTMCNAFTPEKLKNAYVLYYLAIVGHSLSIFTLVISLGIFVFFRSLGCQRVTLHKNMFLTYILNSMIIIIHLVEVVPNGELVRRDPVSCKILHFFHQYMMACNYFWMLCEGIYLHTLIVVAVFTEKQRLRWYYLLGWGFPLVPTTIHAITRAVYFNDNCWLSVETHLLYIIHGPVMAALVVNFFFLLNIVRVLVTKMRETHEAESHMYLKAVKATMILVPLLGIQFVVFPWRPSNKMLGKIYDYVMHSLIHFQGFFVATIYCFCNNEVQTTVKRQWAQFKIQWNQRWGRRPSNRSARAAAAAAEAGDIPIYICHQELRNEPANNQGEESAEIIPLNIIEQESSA

Histamine H2 receptor = Histamine H2 receptor (Homo sapiens, UniProt P25021); assay type: cell membranes, CHO-K1, Membrane; conditions: cho-k1; note: in other assays of this panel Not Active means under 50% inhibition at 10 µM
[2] = DRUGMATRIX: Purinergic P2X radioligand binding (ligand: [3H] alpha, beta-Methylene-ATP); assay type: cell membranes, Oryctolagus cuniculus, New Zealand albino, Urinary bladder, Membrane; conditions: Not Active = under 50% inhibition at 10 µM
[3] = molecular target: T2, Polyunsaturated fatty acid lipoxygenase ALOX15 (Oryctolagus cuniculus, UniProt P12530); experiment: biochemical; assay type: tissue-based, Reticulocytes; conditions: reticulocytes;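 note: inhibition of 15-lipoxygenase enzyme activity measured with linoleic acid as the substrate; in other assays of this panel Not Active means under 50% inhibition at 10 µM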
T2 sequence (P12530 whole entry): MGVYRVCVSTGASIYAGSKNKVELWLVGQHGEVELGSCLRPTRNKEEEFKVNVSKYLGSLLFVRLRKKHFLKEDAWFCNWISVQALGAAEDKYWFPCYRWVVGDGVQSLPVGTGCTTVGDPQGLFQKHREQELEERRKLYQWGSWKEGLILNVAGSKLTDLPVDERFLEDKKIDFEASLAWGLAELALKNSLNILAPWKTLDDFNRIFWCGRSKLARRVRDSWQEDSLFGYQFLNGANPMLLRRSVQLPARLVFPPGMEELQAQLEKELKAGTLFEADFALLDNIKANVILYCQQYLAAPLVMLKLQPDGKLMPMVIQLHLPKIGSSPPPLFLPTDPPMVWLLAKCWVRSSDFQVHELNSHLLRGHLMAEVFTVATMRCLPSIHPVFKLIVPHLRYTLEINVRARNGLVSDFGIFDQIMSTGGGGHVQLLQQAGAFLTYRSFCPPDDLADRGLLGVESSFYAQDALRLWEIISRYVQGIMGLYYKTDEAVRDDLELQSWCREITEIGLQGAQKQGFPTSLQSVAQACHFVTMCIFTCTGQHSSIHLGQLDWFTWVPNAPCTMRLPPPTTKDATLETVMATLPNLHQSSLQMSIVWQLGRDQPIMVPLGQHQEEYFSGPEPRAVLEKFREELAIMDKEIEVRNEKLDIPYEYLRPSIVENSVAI

[4] = DRUGMATRIX: Phorbol Ester radioligand binding (ligand: [3H] PDBu); assay type: cell membranes, Mus musculus, ICR, Brain, Membrane; conditions: Not Active = under 50% inhibition at 10 µM
[5] = DRUGMATRIX: beta-Lactamase enzyme inhibition (substrate: Nitrocefin); set-up: species or system Bacillus cereus; conditions: Not Active = under 50% inhibition at 10 µM
[6] = DRUGMATRIX: Glutamate, Kainate radioligand binding (ligand: [3H] Kainic acid); assay type: cell membranes, Rattus norvegicus, Wistar, Brain, Membrane; conditions: Not Active = under 50% inhibition at 10 µM
Adenosine receptor A1 = molecular target: T3, Adenosine receptor A1 (Homo sapiens, UniProt P30542); assay type: cell membranes, CHO, Membrane; conditions: cho;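 note: radioligand binding assay at the adenosine A1 receptor, with DPCPX serving as the labelled ligand; in other assays of this panel Not Active means under 50% inhibition at 10 µM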
T3 sequence (P30542 whole entry): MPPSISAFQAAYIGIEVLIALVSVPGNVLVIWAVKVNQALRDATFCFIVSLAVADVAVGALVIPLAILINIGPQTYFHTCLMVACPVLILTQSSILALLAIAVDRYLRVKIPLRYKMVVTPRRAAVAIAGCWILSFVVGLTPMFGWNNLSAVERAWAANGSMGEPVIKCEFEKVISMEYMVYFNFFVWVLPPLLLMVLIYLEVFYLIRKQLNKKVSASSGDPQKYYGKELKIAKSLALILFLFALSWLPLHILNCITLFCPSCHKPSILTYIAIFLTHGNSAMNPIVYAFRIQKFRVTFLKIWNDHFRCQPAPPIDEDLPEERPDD

[7] = DRUGMATRIX: Platelet-Derived Growth Factor (PDGF) radioligand binding (ligand: [125I] PDGF); assay type: cell-based; conditions: nih3t3; Not Active = under 50% inhibition at 10 µM
[8] = molecular target: Mitogen-activated protein kinase 14 (Homo sapiens, UniProt Q16539); set-up: species or system Escherichia coli
[9] = molecular target: Beta-1 adrenergic receptor (Homo sapiens, UniProt P08588); experiment: DRUGMATRIX: Adrenergic beta1 radioligand binding (ligand: [125I] Cyanopindolol); assay type: cell membranes, CHO-K1, Membrane; conditions: cho-k1; Not Active = under 50% inhibition at 10 µM
[10] = molecular target: T4, Muscarinic acetylcholine receptor M4 (Homo sapiens, UniProt P08173); assay type: cell membranes, CHO-K1, Membrane; conditions: cho-k1; note: in other assays of this panel Not Active means under 50% inhibition at 10 µM
T4 sequence (P08173 whole entry): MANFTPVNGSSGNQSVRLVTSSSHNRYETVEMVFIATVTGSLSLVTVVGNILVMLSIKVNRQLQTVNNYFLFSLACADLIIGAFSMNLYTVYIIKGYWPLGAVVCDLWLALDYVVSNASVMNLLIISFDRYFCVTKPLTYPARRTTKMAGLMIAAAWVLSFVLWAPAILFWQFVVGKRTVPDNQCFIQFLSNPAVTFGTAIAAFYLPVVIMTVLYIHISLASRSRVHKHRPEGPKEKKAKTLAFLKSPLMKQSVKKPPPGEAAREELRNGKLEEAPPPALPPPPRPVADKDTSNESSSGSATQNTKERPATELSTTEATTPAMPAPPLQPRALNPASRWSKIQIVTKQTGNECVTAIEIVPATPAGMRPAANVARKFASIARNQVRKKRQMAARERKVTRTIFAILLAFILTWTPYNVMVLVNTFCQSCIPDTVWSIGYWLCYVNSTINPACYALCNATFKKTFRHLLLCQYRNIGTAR

Sequence of D(1A) dopamine receptor (P21728 whole entry): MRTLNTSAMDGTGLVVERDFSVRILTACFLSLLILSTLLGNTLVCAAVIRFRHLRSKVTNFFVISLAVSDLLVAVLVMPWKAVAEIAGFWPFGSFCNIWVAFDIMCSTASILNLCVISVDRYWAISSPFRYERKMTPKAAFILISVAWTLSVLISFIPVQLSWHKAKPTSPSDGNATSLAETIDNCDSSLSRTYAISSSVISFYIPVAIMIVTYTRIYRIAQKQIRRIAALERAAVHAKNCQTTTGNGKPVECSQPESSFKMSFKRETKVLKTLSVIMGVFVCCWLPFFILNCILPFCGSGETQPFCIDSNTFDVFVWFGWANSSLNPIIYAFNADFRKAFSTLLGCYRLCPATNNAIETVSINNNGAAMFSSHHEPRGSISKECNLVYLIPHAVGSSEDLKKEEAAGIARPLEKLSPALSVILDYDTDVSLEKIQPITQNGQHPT
Sequence of Mitogen-activated protein kinase 14 (Q16539 whole entry): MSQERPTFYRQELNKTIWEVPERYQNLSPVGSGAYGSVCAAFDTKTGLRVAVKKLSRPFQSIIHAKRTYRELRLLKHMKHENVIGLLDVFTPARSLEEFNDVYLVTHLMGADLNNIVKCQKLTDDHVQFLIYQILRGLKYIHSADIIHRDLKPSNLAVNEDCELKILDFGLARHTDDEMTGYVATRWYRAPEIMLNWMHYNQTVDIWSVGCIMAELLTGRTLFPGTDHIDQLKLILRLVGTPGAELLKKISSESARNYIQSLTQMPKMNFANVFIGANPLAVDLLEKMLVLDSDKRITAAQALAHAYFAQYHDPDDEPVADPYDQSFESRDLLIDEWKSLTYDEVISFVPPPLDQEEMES
Sequence of Histamine H2 receptor (P25021 whole entry): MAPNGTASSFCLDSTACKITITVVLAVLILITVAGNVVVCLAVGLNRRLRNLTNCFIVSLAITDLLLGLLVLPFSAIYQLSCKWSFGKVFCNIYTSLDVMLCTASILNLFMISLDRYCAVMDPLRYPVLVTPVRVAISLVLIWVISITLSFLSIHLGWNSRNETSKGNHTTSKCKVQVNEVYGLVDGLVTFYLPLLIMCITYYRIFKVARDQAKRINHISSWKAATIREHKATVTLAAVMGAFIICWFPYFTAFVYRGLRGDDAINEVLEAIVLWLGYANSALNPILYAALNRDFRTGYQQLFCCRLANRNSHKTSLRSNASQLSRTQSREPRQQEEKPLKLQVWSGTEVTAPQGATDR
Sequence of Beta-1 adrenergic receptor (P08588 whole entry): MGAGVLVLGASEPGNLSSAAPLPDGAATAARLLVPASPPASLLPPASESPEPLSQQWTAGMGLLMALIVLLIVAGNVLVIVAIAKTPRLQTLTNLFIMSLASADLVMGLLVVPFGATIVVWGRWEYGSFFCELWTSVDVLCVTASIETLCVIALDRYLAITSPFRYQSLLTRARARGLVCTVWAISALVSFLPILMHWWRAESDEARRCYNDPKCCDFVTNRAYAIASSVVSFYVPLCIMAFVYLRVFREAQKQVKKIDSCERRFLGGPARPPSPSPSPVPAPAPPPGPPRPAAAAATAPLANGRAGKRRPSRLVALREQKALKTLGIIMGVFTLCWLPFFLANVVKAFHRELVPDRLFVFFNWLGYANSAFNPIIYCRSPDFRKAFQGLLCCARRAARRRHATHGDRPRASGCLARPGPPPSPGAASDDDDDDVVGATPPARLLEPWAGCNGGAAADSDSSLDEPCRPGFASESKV

NC(=O)c1ccccc1O [SALICYLAMIDE]
Not Active: IC50 [1] | Ki [1] | IC50 (D(1A) dopamine receptor) | IC50 (Calcitonin receptor) | IC50 (Histamine H2 receptor) | IC50 [2] | Ki [2] | IC50 [3] | IC50 [4] | Ki [4] | IC50 [5] | Ki [5] | IC50 [6] | Ki [6] | IC50 (Adenosine receptor A1) | IC50 [7] | Ki [7] | IC50 [8] | IC50 [9] | IC50 [10]

Cc1ncc([N+](=O)[O-])n1CC(C)O (stereo not given) [SECNIDAZOLE]
Not Active: IC50 [1] | Ki [1] | IC50 (D(1A) dopamine receptor) | IC50 (Calcitonin receptor) | IC50 (Histamine H2 receptor) | IC50 [2] | Ki [2] | IC50 [3] | IC50 [4] | Ki [4] | IC50 [5] | Ki [5] | IC50 [6] | Ki [6] | IC50 (Adenosine receptor A1) | IC50 [7] | Ki [7] | IC50 [8] | IC50 [9] | IC50 [10]

CN[C@@H]1[C@@H](O)[C@@H](O[C@@H]2[C@@H](O)[C@H](O[C@H]3OC(CN)=CC[C@H]3N)[C@@H](N)C[C@H]2N)OC[C@]1(C)O [SISOMICIN]
Not Active: IC50 [1] | Ki [1] | IC50 (D(1A) dopamine receptor) | IC50 (Calcitonin receptor) | IC50 (Histamine H2 receptor) | IC50 [2] | Ki [2] | IC50 [3] | IC50 [4] | Ki [4] | IC50 [5] | Ki [5] | IC50 [6] | Ki [6] | IC50 (Adenosine receptor A1) | IC50 [7] | Ki [7] | IC50 [8] | IC50 [9] | IC50 [10]

CC(=O)S[C@@H]1CC2=CC(=O)CC[C@]2(C)[C@H]2CC[C@@]3(C)[C@@H](CC[C@@]34CCC(=O)O4)[C@H]12 [SPIRONOLACTONE]
Not Active: IC50 [1] | Ki [1] | IC50 (D(1A) dopamine receptor) | IC50 (Calcitonin receptor) | IC50 (Histamine H2 receptor) | IC50 [2] | Ki [2] | IC50 [3] | IC50 [4] | Ki [4] | IC50 [5] | Ki [5] | IC50 [6] | Ki [6] | IC50 (Adenosine receptor A1) | IC50 [7] | Ki [7] | IC50 [8] | IC50 [9] | IC50 [10]

C[C@]12Cc3c[nH]nc3C[C@@H]1CC[C@@H]1[C@@H]2CC[C@@]2(C)[C@H]1CC[C@]2(C)O [STANOZOLOL]
Not Active: IC50 [1] | Ki [1] | IC50 (D(1A) dopamine receptor) | IC50 (Calcitonin receptor) | IC50 (Histamine H2 receptor) | IC50 [2] | Ki [2] | IC50 [3] | IC50 [4] | Ki [4] | IC50 [5] | Ki [5] | IC50 [6] | Ki [6] | IC50 (Adenosine receptor A1) | IC50 [7] | Ki [7] | IC50 [8] | IC50 [9] | IC50 [10]

CN(N=O)C(=O)N[C@@H](C=O)[C@@H](O)[C@H](O)[C@H](O)CO [STREPTOZOCIN]
Not Active: IC50 [1] | Ki [1] | IC50 (D(1A) dopamine receptor) | IC50 (Calcitonin receptor) | IC50 (Histamine H2 receptor) | IC50 [2] | Ki [2] | IC50 [3] | IC50 [4] | Ki [4] | IC50 [5] | Ki [5] | IC50 [6] | Ki [6] | IC50 (Adenosine receptor A1) | IC50 [7] | Ki [7] | IC50 [8] | IC50 [9] | IC50 [10]

Cc1cc(NS(=O)(=O)c2ccc(N)cc2)no1 [SULFAMETHOXAZOLE]
Not Active: IC50 [1] | Ki [1] | IC50 (D(1A) dopamine receptor) | IC50 (Calcitonin receptor) | IC50 (Histamine H2 receptor) | IC50 [2] | Ki [2] | IC50 [3] | IC50 [4] | Ki [4] | IC50 [5] | Ki [5] | IC50 [6] | Ki [6] | IC50 (Adenosine receptor A1) | IC50 [7] | Ki [7] | IC50 [8] | IC50 [9] | IC50 [10]

Nc1ccc(S(N)(=O)=O)cc1 [SULFANILAMIDE]
Not Active: IC50 [1] | Ki [1] | IC50 (D(1A) dopamine receptor) | IC50 (Calcitonin receptor) | IC50 (Histamine H2 receptor) | IC50 [2] | Ki [2] | IC50 [3] | IC50 [4] | Ki [4] | IC50 [5] | Ki [5] | IC50 [6] | Ki [6] | IC50 (Adenosine receptor A1) | IC50 [7] | Ki [7] | IC50 [8] | IC50 [9] | IC50 [10]

Reference: ChEMBL document CHEMBL1909046, “DrugMatrix in vitro pharmacology data”
